Like-named read-outs stand apart in the source and are kept apart here.
Experiments:
NCI-H358 (K-Ras G12C) = assay: CellTiter-Glo cell viability assay, 5-day treatment; type: cell-based; settings: Homo sapiens, NCI-H358, 120 h
Summary of the method: (§1)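 Seeded cells received test compound by direct dispensing. On day 5 the plates sat at room temperature approximately 30 minutes, then luminescence was measured. Data were normalized to DMSO and curve-fitted with four parameters.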

Capan-1 (K-Ras G12V) = assay: as above; type: cell-based; settings: Homo sapiens, CAPAN-1, 120 h
Summary of the method: as §1

KRAS G12S = KRAS G12S (Homo sapiens, UniProt P01116+P62937, G12S); assay: Disruption of BRAF RBD interaction with Ras (FRET / MOA assay, with Cyclophilin A); type: biochemical
Sequence of KRAS G12S (P01116 1-169 isoform P01116-2 G12S limits assumed): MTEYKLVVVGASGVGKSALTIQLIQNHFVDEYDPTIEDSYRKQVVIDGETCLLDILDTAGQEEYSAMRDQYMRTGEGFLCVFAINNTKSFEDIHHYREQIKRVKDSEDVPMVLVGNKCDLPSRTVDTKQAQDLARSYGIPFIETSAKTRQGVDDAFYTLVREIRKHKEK
Sequence of KRAS G12S (P62937 whole entry): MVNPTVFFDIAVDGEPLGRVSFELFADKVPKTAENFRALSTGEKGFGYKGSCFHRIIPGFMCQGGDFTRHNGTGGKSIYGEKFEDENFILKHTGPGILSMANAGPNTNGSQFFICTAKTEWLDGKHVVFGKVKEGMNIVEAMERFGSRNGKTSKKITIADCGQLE
Summary of the method: (§2)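 First, compounds at a ten-point threefold dilution series (highest final concentration 30 μM) were incubated with nucleotide-loaded K-Ras, Cyclophilin A and BRAF RBD for 3 h at 25 °C. Next, detection antibodies were added for 1.5 h. Finally, IC50 was calculated from TR-FRET ratio decreases against DMSO controls.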

KRAS WT = KRAS WT (Homo sapiens, UniProt P01116+P62937); assay: as above; type: biochemical
Sequence of KRAS WT (P01116 1-169 isoform P01116-2 limits assumed): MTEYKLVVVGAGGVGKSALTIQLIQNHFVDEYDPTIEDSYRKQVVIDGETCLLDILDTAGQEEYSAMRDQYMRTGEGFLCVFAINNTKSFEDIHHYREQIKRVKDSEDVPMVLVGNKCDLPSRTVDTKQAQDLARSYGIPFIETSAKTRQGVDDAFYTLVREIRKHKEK
Sequence of KRAS WT (P62937 whole entry): as the sequence (P62937 whole entry) above
Summary of the method: as §2

KRAS G12D = KRAS G12D (Homo sapiens, UniProt P01116+P62937, G12D); assay: as above; type: biochemical
Sequence of KRAS G12D (P01116 1-169 isoform P01116-2 G12D limits assumed): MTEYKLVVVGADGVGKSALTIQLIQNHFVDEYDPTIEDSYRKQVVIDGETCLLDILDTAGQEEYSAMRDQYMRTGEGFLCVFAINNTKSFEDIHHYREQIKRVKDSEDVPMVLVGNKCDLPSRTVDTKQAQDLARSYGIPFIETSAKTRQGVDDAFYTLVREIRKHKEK
Sequence of KRAS G12D (P62937 whole entry): as the sequence (P62937 whole entry) above
Summary of the method: as §2

NRAS G12C = NRAS G12C (Homo sapiens, UniProt P01111+P62937, G12C); assay: as above; type: biochemical
Sequence of NRAS G12C (P01111 whole entry G12C): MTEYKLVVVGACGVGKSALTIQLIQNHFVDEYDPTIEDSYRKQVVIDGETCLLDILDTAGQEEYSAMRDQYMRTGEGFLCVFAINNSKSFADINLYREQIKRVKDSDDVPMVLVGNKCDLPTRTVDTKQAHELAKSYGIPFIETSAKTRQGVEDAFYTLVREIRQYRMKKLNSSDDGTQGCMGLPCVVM
Sequence of NRAS G12C (P62937 whole entry): as the sequence (P62937 whole entry) above

KRAS G12C = KRAS G12C (Homo sapiens, UniProt P01116+P62937, G12C); assay: as above; type: biochemical
Sequence of KRAS G12C (P01116 1-169 isoform P01116-2 G12C): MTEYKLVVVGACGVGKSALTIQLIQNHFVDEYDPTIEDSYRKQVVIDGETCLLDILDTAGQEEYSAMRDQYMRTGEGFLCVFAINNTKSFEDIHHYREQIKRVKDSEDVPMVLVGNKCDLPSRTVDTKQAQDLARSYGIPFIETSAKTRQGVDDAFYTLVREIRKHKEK
Sequence of KRAS G12C (P62937 whole entry): as the sequence (P62937 whole entry) above
Summary of the method: as §2

KRAS G13C = KRAS G13C (Homo sapiens, UniProt P01116+P62937, G13C); assay: as above; type: biochemical
Sequence of KRAS G13C (P01116 1-169 isoform P01116-2 G13C): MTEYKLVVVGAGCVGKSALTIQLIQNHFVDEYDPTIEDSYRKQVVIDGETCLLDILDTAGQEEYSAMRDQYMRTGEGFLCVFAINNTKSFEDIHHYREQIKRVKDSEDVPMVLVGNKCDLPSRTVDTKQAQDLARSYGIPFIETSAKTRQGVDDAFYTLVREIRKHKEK
Sequence of KRAS G13C (P62937 whole entry): as the sequence (P62937 whole entry) above
Summary of the method: as §2

KRAS G12V = KRAS G12V (Homo sapiens, UniProt P01116+P62937, G12V); assay: as above; type: biochemical
Sequence of KRAS G12V (P01116 1-169 isoform P01116-2 G12V limits assumed): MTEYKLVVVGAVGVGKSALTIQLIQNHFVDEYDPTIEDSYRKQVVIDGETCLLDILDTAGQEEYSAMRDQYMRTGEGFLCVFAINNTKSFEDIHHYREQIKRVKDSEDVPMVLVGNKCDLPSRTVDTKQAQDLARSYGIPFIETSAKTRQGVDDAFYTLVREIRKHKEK
Sequence of KRAS G12V (P62937 whole entry): as the sequence (P62937 whole entry) above
Summary of the method: as §2

KRAS G13D = KRAS G13D (Homo sapiens, UniProt P01116+P62937, G13D); assay: as above; type: biochemical
Sequence of KRAS G13D (P01116 1-169 isoform P01116-2 G13D limits assumed): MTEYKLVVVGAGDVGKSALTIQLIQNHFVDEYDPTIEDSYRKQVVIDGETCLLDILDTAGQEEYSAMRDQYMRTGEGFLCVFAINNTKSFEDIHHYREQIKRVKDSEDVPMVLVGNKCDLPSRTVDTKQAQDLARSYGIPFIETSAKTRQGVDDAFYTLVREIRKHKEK
Sequence of KRAS G13D (P62937 whole entry): as the sequence (P62937 whole entry) above
Summary of the method: as §2

[1] = 5-day treatment, read-out: H358 Cell Viability assay data (K-Ras G12C, IC50)
[2] = 5-day treatment, read-out: Capan-1 Cell Viability assay data (K-Ras G12V, IC50)
[3] = read-out: KRAS G12S FRET data, IC50
[4] = KRAS WT, read-out: KRAS WT FRET data IC50
[5] = read-out: KRAS G12D FRET data, IC50
[6] = NRAS G12C, read-out: NRAS G12C FRET data IC50
[7] = read-out: KRAS G12C FRET data, IC50
[8] = read-out: KRAS G13C FRET data, IC50
[9] = KRAS G12V, read-out: KRAS G12V FRET data IC50
[10] = KRAS G13D, read-out: KRAS G13D FRET data IC50
[11] = KRAS WT FRET data IC50, KRAS WT
[12] = NRAS G12C FRET data IC50, NRAS G12C
[13] = KRAS G12V FRET data IC50, KRAS G12V
[14] = KRAS G13D FRET data IC50, KRAS G13D

Row | Compound | IC50 (NCI-H358 (K-Ras G12C); [1]) [µM] | IC50 (Capan-1 (K-Ras G12V); [2]) [µM] | IC50 (KRAS G12S; [3]) [µM] | IC50 (KRAS WT; [4]) [µM] | IC50 (KRAS G12D; [5]) [µM] | IC50 (NRAS G12C; [6]) [µM] | IC50 (KRAS G12C; [7]) [µM] | IC50 (KRAS G13C; [8]) [µM] | IC50 (KRAS G12V; [9]) [µM] | IC50 (KRAS G13D; [10]) [µM] | IC50 (KRAS G12S; KRAS G12S FRET data, IC50) [µM] | IC50 (KRAS WT; [11]) [µM] | IC50 (KRAS G12D; KRAS G12D FRET data, IC50) [µM] | IC50 (NRAS G12C; [12]) [µM] | IC50 (KRAS G12C; KRAS G12C FRET data, IC50) [µM] | IC50 (KRAS G13C; KRAS G13C FRET data, IC50) [µM] | IC50 (KRAS G12V; [13]) [µM] | IC50 (KRAS G13D; [14]) [µM] | IC50 (NCI-H358 (K-Ras G12C); read-out: H358 Cell Viability assay data (K-Ras G12C, IC50, uM), 5-day treatment) [µM] | IC50 (Capan-1 (K-Ras G12V); read-out: Capan-1 Cell Viability assay data (K-Ras G12V, IC50, uM)) [µM]
1 | CCn1c(-c2cnccc2COC)c2c3cc(ccc31)-c1cc(O)cc(c1)C[C@H](NC(=O)[C@H](C(C)C)N(C)C(=O)[C@H]1CCN(C(=O)C(C)C)C1)C(=O)N1CCC[C@H](N1)C(=O)OCC(C)(C)C2 [Example A29] | 0.1 to 1 | 1 to 10 | 0.1 to 1 | 1 to 10 | > 10 | 0.1 to 1 | 0.1 to 1 | 1 to 10 | 0.1 to 1 | 1 to 10 | – | – | – | – | – | – | – | – | – | –
2 | CCn1c(-c2cnccc2COC)c2c3cc(ccc31)-c1cc(O)cc(c1)C[C@H](NC(=O)[C@H](C(C)C)N(C)C(=O)N1CC(OC)C1)C(=O)N1CCC[C@H](N1)C(=O)OCC(C)(C)C2 [Example A30] | 0.1 to 1 | 0.1 to 1 | 0.1 to 1 | 0.1 to 1 | 1 to 10 | 0.1 to 1 | 0.1 to 1 | 0.1 to 1 | 0.1 to 1 | 1 to 10 | – | – | – | – | – | – | – | – | – | –
3 | CCn1c(-c2cnccc2COC)c2c3cc(ccc31)-c1cc(O)cc(c1)C[C@H](NC(=O)[C@H](C(C)C)N(C)C(=O)CO)C(=O)N1CCC[C@H](N1)C(=O)OCC(C)(C)C2 [Example A43, (2S)—N-[(8S,14S)-22-ethyl-4-hydroxy-21-[4-(methoxymethyl)pyridin-3-yl]-18,18-dimethyl-9,15-dioxo-16-oxa-10,22,28-triazapentacyclo[18.5.2.1^2,6.1^10,14.0^23,27]nonacosa-1(26),2,4,6(29),20,23(27),24-heptaen-8-yl]-2-(2-hydroxy-N-methylacetamido)-3-methylbutanamide] | 1 to 10 | 1 to 10 | – | – | – | – | – | – | – | – | 0.1 to 1 | 0.1 to 1 | 1 to 10 | 0.1 to 1 | 0.1 to 1 | 0.1 to 1 | 0.1 to 1 | 0.1 to 1 | – | –
4 | CCn1c(-c2cnccc2COC)c2c3cc(ccc31)-c1cc(O)cc(c1)C[C@H](NC(=O)[C@H](C(C)C)N(C)C(=O)[C@@H]1NC[C@@H]3C[C@@H]31)C(=O)N1CCC[C@H](N1)C(=O)OCC(C)(C)C2 [Example A78] | – | – | – | – | – | – | – | – | – | – | 0.1 to 1 | 0.1 to 1 | 0.1 to 1 | 0.1 to 1 | 0.1 to 1 | 0.01 to 0.1 | 0.1 to 1 | 0.1 to 1 | 0.1 to 1 | 1 to 10
5 | CCn1c(-c2cnccc2COC)c2c3cc(ccc31)-c1cc(O)cc(c1)C[C@H](NC(=O)[C@H](C(C)C)N(C)C(=O)C1CCN(C)CC1)C(=O)N1CCC[C@H](N1)C(=O)OCC(C)(C)C2 [Example A84] | > 10 | > 10 | – | – | – | – | – | – | – | – | 0.1 to 1 | 0.1 to 1 | 1 to 10 | 1 to 10 | 0.1 to 1 | 0.1 to 1 | 1 to 10 | 0.1 to 1 | – | –
6 | CCn1c(-c2cnccc2COC)c2c3cc(ccc31)-c1cc(O)cc(c1)C[C@H](NC(=O)[C@H](C(C)C)N(C)C(=O)[C@H]1CCCO1)C(=O)N1CCC[C@H](N1)C(=O)OCC(C)(C)C2 [Example A90] | 0.1 to 1 | 0.1 to 1 | – | – | – | – | – | – | – | – | 0.1 to 1 | 0.1 to 1 | 1 to 10 | 0.1 to 1 | 0.1 to 1 | 0.1 to 1 | 0.1 to 1 | 0.1 to 1 | – | –
7 | CCn1c(-c2cnccc2COC)c2c3cc(ccc31)-c1cc(O)cc(c1)C[C@H](NC(=O)[C@H](C(C)C)N(C)C(=O)[C@@H]1CCCO1)C(=O)N1CCC[C@H](N1)C(=O)OCC(C)(C)C2 [Example A91] | 0.1 to 1 | 0.1 to 1 | 0.1 to 1 | 0.1 to 1 | 1 to 10 | 0.1 to 1 | 0.1 to 1 | 0.1 to 1 | 0.1 to 1 | 1 to 10 | – | – | – | – | – | – | – | – | – | –
8 | CCn1c(-c2cnccc2COC)c2c3cc(ccc31)-c1cc(O)cc(c1)C[C@H](NC(=O)[C@H](C(C)C)N(C)C(=O)[C@@H]1CCOC1)C(=O)N1CCC[C@H](N1)C(=O)OCC(C)(C)C2 [Example A94] | 0.1 to 1 | 0.1 to 1 | 0.1 to 1 | 0.1 to 1 | 1 to 10 | 0.1 to 1 | 0.1 to 1 | 0.1 to 1 | 0.1 to 1 | 0.1 to 1 | – | – | – | – | – | – | – | – | – | –
9 | CCn1c(-c2cccnc2[C@H](C)OC)c2c3cc(ccc31)-c1cc(O)cc(c1)C[C@H](NC(=O)[C@H](C(C)C)N(C)C(=O)[C@H]1CCN(C(=O)CN(C)C)C1)C(=O)N1CCC[C@H](N1)C(=O)OCC(C)(C)C2 [Example A95] | 0.1 to 1 | 0.1 to 1 | 0.01 to 0.1 | 0.01 to 0.1 | 0.01 to 0.1 | 0.01 to 0.1 | 0.01 to 0.1 | 0.01 to 0.1 | 0.01 to 0.1 | 0.01 to 0.1 | – | – | – | – | – | – | – | – | – | –
10 | CCn1c(-c2cccnc2[C@H](C)OC)c2c3cc(ccc31)-c1cc(O)cc(c1)C[C@H](NC(=O)[C@H](C(C)C)N(C)C(=O)[C@H]1CCN(C)C1)C(=O)N1CCC[C@H](N1)C(=O)OCC(C)(C)C2 [Example A100] | 0.1 to 1 | 1 to 10 | 0.01 to 0.1 | 0.01 to 0.1 | 0.01 to 0.1 | 0.01 to 0.1 | 0.01 to 0.1 | 0.01 to 0.1 | 0.1 to 1 | 0.01 to 0.1 | – | – | – | – | – | – | – | – | – | –
11 | CCn1c(-c2cnccc2COC)c2c3cc(ccc31)-c1cc(O)cc(c1)C[C@H](NC(=O)[C@H](C(C)C)N(C)C(=O)OC1CN(C)C1)C(=O)N1CCC[C@H](N1)C(=O)OCC(C)(C)C2 [Example A101] | 1 to 10 | 1 to 10 | 0.1 to 1 | 0.1 to 1 | 0.1 to 1 | 0.1 to 1 | 0.1 to 1 | 0.01 to 0.1 | 1 to 10 | 0.1 to 1 | – | – | – | – | – | – | – | – | – | –
12 | CCn1c(-c2cccnc2[C@H](C)OC)c2c3cc(ccc31)-c1cc(O)cc(c1)C[C@H](NC(=O)[C@H](C(C)C)N(C)C(=O)[C@H]1CCN(CCO)C1)C(=O)N1CCC[C@H](N1)C(=O)OCC(C)(C)C2 [Example A111] | 1 to 10 | 1 to 10 | 0.01 to 0.1 | 0.01 to 0.1 | 0.01 to 0.1 | 0.1 to 1 | 0.01 to 0.1 | 0.01 to 0.1 | 1 to 10 | 0.01 to 0.1 | – | – | – | – | – | – | – | – | – | –
